According to US20080015237A1 (ASTRAZENECA AB, priority 2006, published 2008):

These compounds were tested against human Kv1.5 channel (Homo sapiens, UniProt P22460) (assay: Test A: Rb+ efflux assay). Settings: CHO cells stably transfected with cDNA for human Kv1.5.
Assay type: cell-based
Outline: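 CHO cells stably expressing human Kv1.5, loaded with Rb+ buffer for 3-4 h at 37 °C, then washed and exposed to compound. Channels opened with elevated-K+ buffer; after a short incubation, Rb+ released into supernatant measured by flame atomic absorption spectroscopy.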

human Kv1.5 channel, sequence (P22460 whole entry): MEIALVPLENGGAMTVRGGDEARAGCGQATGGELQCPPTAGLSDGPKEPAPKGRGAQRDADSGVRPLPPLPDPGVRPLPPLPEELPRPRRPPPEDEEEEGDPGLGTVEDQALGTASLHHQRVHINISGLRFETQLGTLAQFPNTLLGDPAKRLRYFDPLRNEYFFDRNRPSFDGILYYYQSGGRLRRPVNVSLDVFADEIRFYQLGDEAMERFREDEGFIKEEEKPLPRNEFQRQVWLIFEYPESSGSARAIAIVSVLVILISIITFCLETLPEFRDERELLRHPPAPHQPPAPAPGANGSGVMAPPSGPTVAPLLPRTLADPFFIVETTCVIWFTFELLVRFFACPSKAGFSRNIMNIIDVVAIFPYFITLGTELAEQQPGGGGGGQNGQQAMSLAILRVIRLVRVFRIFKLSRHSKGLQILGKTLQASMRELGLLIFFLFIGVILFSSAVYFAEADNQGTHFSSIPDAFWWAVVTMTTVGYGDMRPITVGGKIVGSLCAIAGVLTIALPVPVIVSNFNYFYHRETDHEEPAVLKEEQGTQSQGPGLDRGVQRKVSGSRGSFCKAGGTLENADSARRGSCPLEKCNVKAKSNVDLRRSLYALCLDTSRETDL

Row | SMILES | IC50 [nM]
1 | O=C(NCCCC(F)(F)F)C1c2ccccc2C(=O)N1Cc1ccccc1-c1ccccc1 (stereo not drawn) [2-(biphenyl-2-ylmethyl)-3-oxo-N-(4,4,4-trifluorobutyl)isoindoline-1-carboxamide] | 1500
2 | Cc1c(OCF)ccc2c1C(=O)N(Cc1ccccc1-c1ccccc1)C2C(=O)NC(C)(C)C (stereo not drawn) [2-(biphenyl-2-ylmethyl)-N-(tert-butyl)-5-(fluoromethoxy)-4-methyl-3-oxoisoindoline-1-carboxamide] | 1700
3 | C[C@H](c1ccccc1)N1C(=O)c2ccc(F)cc2C1C(=O)NCc1ccccc1 (stereo partly drawn) [N-benzyl-6-fluoro-3-oxo-2-[(1R)-1-phenylethyl]isoindoline-1-carboxamide] | 1300
4 | CC(C)(c1ccccc1)N1C(=O)c2ccccc2C1C(=O)NCc1ccccc1 (stereo not drawn) [N-benzyl-2-(1-methyl-1-phenylethyl)-3-oxoisoindoline-1-carboxamide] | 1700

The remaining lines, values ahead:

Row | IC50 [nM] | SMILES
5 | 1700 | CCCCNC(=O)C1c2cc(F)ccc2C(=O)N1CC(C)c1ccc(Cl)cc1 (single isomer, unassigned) [(1R or 1S)-N-butyl-2-[(2S or 2R)-2-(4-chlorophenyl)propyl]-6-fluoro-3-oxoisoindoline-1-carboxamide]
6 | 2800 | CCCNC(=O)C1c2cc(F)ccc2C(=O)N1Cc1ccccc1-c1ccccc1 (stereo not drawn) [2-(biphenyl-2-ylmethyl)-6-fluoro-3-oxo-N-propylisoindoline-1-carboxamide]
